Patent US9469650B2, “Melampomagnolide B derivatives” (BOARD OF TRUSTEES OF THE UNIVERSITY OF ARKANSAS, priority 2013, dated 2016)

Experiments:
[1] = test system: MDA-MB-435; assay: panel of 60 human tumor cell lines, growth inhibition (Melanoma)
[2] = test system: SF-268; assay: panel of 60 human tumor cell lines, growth inhibition (CNS Cancer)
[3] = test system: SF-539; assay: as above
[4] = test system: COLO 205; assay: panel of 60 human tumor cell lines, growth inhibition (Colon Cancer)
[5] = test system: HCT-116; assay: as above; settings: for Percent Growth: HCT-116
[6] = test system: SW-620; assay: as above; settings: for Percent Growth: SW-620
[7] = test system: 786-0; assay: panel of 60 human tumor cell lines, growth inhibition (Renal Cancer)
[8] = test system: ACHN; assay: as above
[9] = test system: UO-31; assay: as above
[10] = test system: HS 578T; assay: panel of 60 human tumor cell lines, growth inhibition (Breast Cancer); settings: for Percent Growth: HS 578T
[11] = test system: BT-549; assay: as above
[12] = test system: T-47D; assay: as above; settings: for Percent Growth: T-47D
[13] = test system: IGROV1; assay: panel of 60 human tumor cell lines, growth inhibition (Ovarian Cancer); settings: for Percent Growth: IGROVI
[14] = test system: OVCAR-5; assay: as above
[15] = test system: OVCAR-8; assay: as above
[16] = test system: NCI/ADR-RES; assay: as above
[17] = test system: NCI-H522; assay: panel of 60 human tumor cell lines, growth inhibition (Non-Small Cell Lung Cancer)

For `C=C1C(=O)O[C@H]2[C@H]1CC/C(COC(=O)CCC(=O)NCc1ccc(Cl)nc1)=C\CC[C@@]1(C)O[C@@H]21` [JVM 96], the GI50 ([1]; Homo sapiens, MDA-MB-435) was 4.95 µM, the CC50 ([1]; Homo sapiens, MDA-MB-435, read-out: LC50) was 61.9 µM and the IC (TGI) ([1]; Homo sapiens, MDA-MB-435, read-out: TGI) was 20.4 µM. The “Percent Growth” value ([1]; MDA-MB-435, Log10 Concentration −4.0) was −72%, the “Percent Growth” value ([1]; MDA-MB-435, Log10 Concentration −5.0) was 32% and the “Percent Growth” value ([1]; MDA-MB-435, Log10 Concentration −6.0) was 90%. The “Percent Growth” value ([1]; MDA-MB-435, Log10 Concentration −7.0) was 89%, the “Percent Growth” value ([1]; MDA-MB-435, Log10 Concentration −8.0) was 97% and the GI50 ([2]; Homo sapiens, SF-268) was 10.5 µM. For the same compound, the CC50 ([2]; Homo sapiens, SF-268, read-out: LC50) was 67.6 µM, the IC (TGI) ([2]; Homo sapiens, SF-268, read-out: TGI) was 26.7 µM and the “Percent Growth” value ([2]; SF-268, Log10 Concentration −4.0) was −71%. For the same compound, the “Percent Growth” value ([2]; SF-268, Log10 Concentration −5.0) was 52%, the “Percent Growth” value ([2]; SF-268, Log10 Concentration −6.0) was 97% and the “Percent Growth” value ([2]; SF-268, Log10 Concentration −7.0) was 98%. For the same compound, the “Percent Growth” value ([2]; SF-268, Log10 Concentration −8.0) was 97%, the GI50 ([3]; Homo sapiens, SF-539) was 3.25 µM and the CC50 ([3]; Homo sapiens, SF-539, read-out: LC50) was 40.8 µM. The IC (TGI) ([3]; Homo sapiens, SF-539, read-out: TGI) was 12.2 µM, the “Percent Growth” value ([3]; SF-539, Log10 Concentration −4.0) was −87% and the “Percent Growth” value ([3]; SF-539, Log10 Concentration −5.0) was 8%. For the same compound, the “Percent Growth” value ([3]; SF-539, Log10 Concentration −6.0) was 94%, the “Percent Growth” value ([3]; SF-539, Log10 Concentration −7.0) was 85% and the “Percent Growth” value ([3]; SF-539, Log10 Concentration −8.0) was 96%. The “Percent Growth” value ([4]; COLO 205, Log10 Concentration −4.0) was −90%, the “Percent Growth” value ([4]; COLO 205, Log10 Concentration −5.0) was 1% and the “Percent Growth” value ([4]; COLO 205, Log10 Concentration −6.0) was 103%. For the same compound, the “Percent Growth” value ([4]; COLO 205, Log10 Concentration −7.0) was 105%, the “Percent Growth” value ([4]; COLO 205, Log10 Concentration −8.0) was 109% and the GI50 ([4]; Homo sapiens, COLO 205) was 3.3 µM. For the same compound, the CC50 ([4]; Homo sapiens, COLO 205, read-out: LC50) was 36.6 µM, the IC (TGI) ([4]; Homo sapiens, COLO 205, read-out: TGI) was 10.3 µM and the “Percent Growth” value ([5]; Log10 Concentration −4.0) was −100%. For the same compound, the “Percent Growth” value ([5]; Log10 Concentration −5.0) was 13%, the “Percent Growth” value ([5]; Log10 Concentration −6.0) was 97% and the “Percent Growth” value ([5]; Log10 Concentration −7.0) was 93%. For the same compound, the “Percent Growth” value ([5]; Log10 Concentration −8.0) was 97%, the GI50 ([5]; Homo sapiens, HCT-116, HCT-116) was 3.62 µM and the CC50 ([5]; Homo sapiens, HCT-116, read-out: LC50) was 36.2 µM. It also gave an IC (TGI) ([5]; Homo sapiens, HCT-116, read-out: TGI) of 13.1 µM, a GI50 ([6]; Homo sapiens, SW-620, SW-620) of 4.35 µM and a CC50 ([6]; Homo sapiens, SW-620, read-out: LC50) of 64.9 µM. The IC (TGI) ([6]; Homo sapiens, SW-620, read-out: TGI) was 17.8 µM, the “Percent Growth” value ([6]; Log10 Concentration −4.0) was −67% and the “Percent Growth” value ([6]; Log10 Concentration −5.0) was 22%. The “Percent Growth” value ([6]; Log10 Concentration −6.0) was 99%, the “Percent Growth” value ([6]; Log10 Concentration −7.0) was 99% and the “Percent Growth” value ([6]; Log10 Concentration −8.0) was 99%. For the same compound, the “Percent Growth” value ([7]; 786-0, Log10 Concentration −4.0) was −91%, the “Percent Growth” value ([7]; 786-0, Log10 Concentration −5.0) was 26% and the “Percent Growth” value ([7]; 786-0, Log10 Concentration −6.0) was 94%. For the same compound, the “Percent Growth” value ([7]; 786-0, Log10 Concentration −7.0) was 92%, the “Percent Growth” value ([7]; 786-0, Log10 Concentration −8.0) was 94% and the GI50 ([7]; Homo sapiens, 786-0) was 4.43 µM. For the same compound, the CC50 ([7]; Homo sapiens, 786-0, read-out: LC50) was 44.4 µM, the IC (TGI) ([7]; Homo sapiens, 786-0, read-out: TGI) was 16.6 µM and the GI50 ([8]; Homo sapiens) was 4.45 µM. The CC50 ([8]; Homo sapiens, read-out: LC50) was 51.9 µM, the IC (TGI) ([8]; Homo sapiens, read-out: TGI) was 17.9 µM and the “Percent Growth” value ([8]; Log10 Concentration −4.0) was −81%. The “Percent Growth” value ([8]; Log10 Concentration −5.0) was 27%, the “Percent Growth” value ([8]; Log10 Concentration −6.0) was 92% and the “Percent Growth” value ([8]; Log10 Concentration −7.0) was 94%. For the same compound, the “Percent Growth” value ([8]; Log10 Concentration −8.0) was 98%, the GI50 ([9]; Homo sapiens, UO-31) was 10.2 µM and the CC50 ([9]; Homo sapiens, UO-31, read-out: LC50) was 53.7 µM. For the same compound, the IC (TGI) ([9]; Homo sapiens, UO-31, read-out: TGI) was 23.4 µM, the “Percent Growth” value ([9]; UO-31, Log10 Concentration −4.0) was −87% and the “Percent Growth” value ([9]; UO-31, Log10 Concentration −5.0) was 51%. For the same compound, the “Percent Growth” value ([9]; UO-31, Log10 Concentration −6.0) was 92%, the “Percent Growth” value ([9]; UO-31, Log10 Concentration −7.0) was 88% and the “Percent Growth” value ([9]; UO-31, Log10 Concentration −8.0) was 87%. The “Percent Growth” value ([10]; Log10 Concentration −4.0) was −5%, the “Percent Growth” value ([10]; Log10 Concentration −5.0) was 61% and the “Percent Growth” value ([10]; Log10 Concentration −6.0) was 94%. For the same compound, the “Percent Growth” value ([10]; Log10 Concentration −7.0) was 101%, the “Percent Growth” value ([10]; Log10 Concentration −8.0) was 95% and the GI50 ([10]; Homo sapiens, Hs-578T) was 14.7 µM. The CC50 ([10]; Homo sapiens, Hs-578T, read-out: LC50) was > 100 µM, the IC (TGI) ([10]; Homo sapiens, Hs-578T, read-out: TGI) was 63.7 µM and the “Percent Growth” value ([11]; BT-549, Log10 Concentration −4.0) was −97%. For the same compound, the “Percent Growth” value ([11]; BT-549, Log10 Concentration −5.0) was 32%, the “Percent Growth” value ([11]; BT-549, Log10 Concentration −6.0) was 93% and the “Percent Growth” value ([11]; BT-549, Log10 Concentration −7.0) was 139%. For the same compound, the “Percent Growth” value ([11]; BT-549, Log10 Concentration −8.0) was 102%, the GI50 ([11]; Homo sapiens, BT-549) was 5.14 µM and the CC50 ([11]; Homo sapiens, BT-549, read-out: LC50) was 43.1 µM. The IC (TGI) ([11]; Homo sapiens, BT-549, read-out: TGI) was 17.8 µM, the GI50 ([12]; Homo sapiens, T47D) was 3.52 µM and the CC50 ([12]; Homo sapiens, T47D, read-out: LC50) was 55.9 µM. For the same compound, the IC (TGI) ([12]; Homo sapiens, T47D, read-out: TGI) was 14.4 µM, the “Percent Growth” value ([12]; Log10 Concentration −4.0) was −71% and the “Percent Growth” value ([12]; Log10 Concentration −5.0) was 13%. For the same compound, the “Percent Growth” value ([12]; Log10 Concentration −6.0) was 94%, the “Percent Growth” value ([12]; Log10 Concentration −7.0) was 100% and the “Percent Growth” value ([12]; Log10 Concentration −8.0) was 100%. The GI50 ([13]; Homo sapiens, IGROV-1) was 16.7 µM, the CC50 ([13]; Homo sapiens, IGROV-1, read-out: LC50) was 95.5 µM and the IC (TGI) ([13]; Homo sapiens, IGROV-1, read-out: TGI) was 39.9 µM. The “Percent Growth” value ([13]; Log10 Concentration −4.0) was −53%, the “Percent Growth” value ([13]; Log10 Concentration −5.0) was 79% and the “Percent Growth” value ([13]; Log10 Concentration −6.0) was 107%. The “Percent Growth” value ([13]; Log10 Concentration −7.0) was 106%, the “Percent Growth” value ([13]; Log10 Concentration −8.0) was 107% and the GI50 ([14]; Homo sapiens, OVCAR-5) was 12.1 µM. The CC50 ([14]; Homo sapiens, OVCAR-5, read-out: LC50) was 60.5 µM, the IC (TGI) ([14]; Homo sapiens, OVCAR-5, read-out: TGI) was 27.1 µM and the “Percent Growth” value ([14]; OVCAR-5, Log10 Concentration −4.0) was −81%. For the same compound, the “Percent Growth” value ([14]; OVCAR-5, Log10 Concentration −5.0) was 62%, the “Percent Growth” value ([14]; OVCAR-5, Log10 Concentration −6.0) was 89% and the “Percent Growth” value ([14]; OVCAR-5, Log10 Concentration −7.0) was 84%. The “Percent Growth” value ([14]; OVCAR-5, Log10 Concentration −8.0) was 93%, the GI50 ([15]; Homo sapiens, OVCAR-8) was 12.5 µM and the CC50 ([15]; Homo sapiens, OVCAR-8, read-out: LC50) was 72 µM. For the same compound, the IC (TGI) ([15]; Homo sapiens, OVCAR-8, read-out: TGI) was 30 µM, the “Percent Growth” value ([15]; OVCAR-8, Log10 Concentration −4.0) was −69% and the “Percent Growth” value ([15]; OVCAR-8, Log10 Concentration −5.0) was 63%. For the same compound, the “Percent Growth” value ([15]; OVCAR-8, Log10 Concentration −6.0) was 105%, the “Percent Growth” value ([15]; OVCAR-8, Log10 Concentration −7.0) was 95% and the “Percent Growth” value ([15]; OVCAR-8, Log10 Concentration −8.0) was 95%. The GI50 ([16]; Homo sapiens) was 31.1 µM, the CC50 ([16]; Homo sapiens, read-out: LC50) was > 100 µM and the IC (TGI) ([16]; Homo sapiens, read-out: TGI) was > 100 µM. For the same compound, the “Percent Growth” value ([16]; Log10 Concentration −4.0) was 6%, the “Percent Growth” value ([16]; Log10 Concentration −5.0) was 93% and the “Percent Growth” value ([16]; Log10 Concentration −6.0) was 107%. The “Percent Growth” value ([16]; Log10 Concentration −7.0) was 101%, the “Percent Growth” value ([16]; Log10 Concentration −8.0) was 101% and the GI50 ([17]; Homo sapiens, NCI-H522) was 1.6 µM. The CC50 ([17]; Homo sapiens, NCI-H522, read-out: LC50) was 7.82 µM, the IC (TGI) ([17]; Homo sapiens, NCI-H522, read-out: TGI) was 3.54 µM and the “Percent Growth” value ([17]; NCI-H522, Log10 Concentration −4.0) was −78%. The “Percent Growth” value ([17]; NCI-H522, Log10 Concentration −5.0) was −66%, the “Percent Growth” value ([17]; NCI-H522, Log10 Concentration −6.0) was 80% and the “Percent Growth” value ([17]; NCI-H522, Log10 Concentration −7.0) was 102%. The “Percent Growth” value ([17]; NCI-H522, Log10 Concentration −8.0) was 101%.
